Data taken from patent US9974860B2, “Aqueous solution formulation and method for manufacturing same” (Akiko ITAI, priority 2013, dated 2018).
Like-named read-outs stand apart in the source and are kept apart here.

Legend:
[1] = cited from earlier work
[2] = Pharmacokinetic study, intravenous administration of aqueous solution of Working Example 1; type: in vivo, Sprague-Daweley IGS rats; details: i.v.; for C0 / AUC(0-t): Sprague-Dawley IGS, rat, blood, iv, average of three; for AUC(0-t): read-out: AUC0-24
Excerpt: The aqueous solution obtained in Working Example 1 was filtered and sterilized with Millex (registered trademark)-GV (0.22 μm; available from Millipore Japan Corporation/Merck Millipore Corporation) and intravenously administered to female and male Sprague-Daweley IGS rats (6 weeks old) to investigate the pharmacokinetics of Compound (I).
As groups of animals, female and male Sprague-Daweley IGS rats (available from Charles River Laboratories Japan, Inc.) were used. The rats were 6 weeks old. The male rats had body weights of 166 to 189 g, and the female rats had body weights of 123 to 145 g.
The rats were quarantined and acclimated in a SPF (specific pathogen free) laboratory for animal experimentations for seven days, and their states of health were simultaneously observed. Each of the rats was kept in a sterilized stainless cage. In the SPF laboratory for animal experimentations, the temperature was maintained at 20.6 to 22.5° C., and the relative humidity was maintained at 44 to 60%. In the SPF laboratory for animal experimentations, ventilation was provided fifteen times per hour. Regarding illumination in the SPF laboratory for animal experimentations, a bright state and a dark state were switched every 12 hours.
As foods for rats, a standard dry food in stick-shape (whose components were already analyzed) was used. As drinking water, tap water which was confirmed to be within a range of the reference value was used, and the rats were allowed to freely drink it.
The above-mentioned quarantined rats were randomly divided into the following three groups (four female rats and four male rats per group) by weight.
(1) Group 1: the aqueous solution obtained in Working Example 1 was administered in a dose of 1 mL/kg.
(2) Group 2: the aqueous solution obtained in Working Example 1 was administered in a dose of 2 mL/kg.
(3) Group 3: the aqueous solution obtained in Working Example 1 was administered in a dose of 3 mL/kg.
After the quarantined rats fasted overnight (for about 16 hours), the aqueous solution obtained in Working Example 1 was intravenously administered. Blood was collected 0.083 hours, 0.25 hours, 0.5 hours, 1 hour, 4 hours, and 24 hours after the administration, and the concentration of Compound (I) in the blood was measured. The maximum blood concentration, C0 (ng/mL), just after the composition for injection was intravenously administered, and the area under the blood concentration-time curve of Compound (I) over 0 to 24 hours after the administration, AUC0-24 (ng·h/mL), were calculated from the measured concentrations of Compound (I) in the blood at the collection times.

[3] = female rats, aqueous solution of Working Example 1, dose of Compound (I) 1 mg/kg (Group 1)
[4] = female rats, aqueous solution of Working Example 1, dose of Compound (I) 2 mg/kg (Group 2)
[5] = female rats, aqueous solution of Working Example 1, dose of Compound (I) 3 mg/kg (Group 3)
[6] = male rats, aqueous solution of Working Example 1, dose of Compound (I) 1 mg/kg (Group 1)
[7] = male rats, aqueous solution of Working Example 1, dose of Compound (I) 2 mg/kg (Group 2)
[8] = male rats, aqueous solution of Working Example 1, dose of Compound (I) 3 mg/kg (Group 3)

## O=C(Nc1cc(C(F)(F)F)cc(C(F)(F)F)c1)c1cc(Cl)ccc1O [Compound (I), N-[3,5-bis(trifluoromethyl)phenyl]-5-chloro-2-hydroxybenzamide]
[1]
  Water solubility: poor water solubility
[2]; [3]
  C0: 2150 ng/mL
  AUC(0-t): 388 ng·h/mL
[2]; [4]
  C0: 2820 ng/mL
  AUC(0-t): 540 ng·h/mL
[2]; [5]
  C0: 5250 ng/mL
  AUC(0-t): 981 ng·h/mL
[2]; [6]
  C0: 1380 ng/mL
  AUC(0-t): 304 ng·h/mL
[2]; [7]
  C0: 3210 ng/mL
  AUC(0-t): 620 ng·h/mL
[2]; [8]
  C0: 4850 ng/mL
  AUC(0-t): 1260 ng·h/mL
[2]; rats, aqueous solution of Working Example 1, 1 to 3 mL/kg
  Exposure of Compound (I) in vivo: exposed in a dose-dependent manner and in a sufficient amount
